Assay results published in patent US12240846B2 (Enliven Inc., priority 2020, dated 2025).

Tests used:
ABL1 (T315I) = ABL1 (T315I) (Homo sapiens, UniProt P00519, T315I); test: Luminescence-based ABL kinase assay (300 μM ATP), ADP-Glo; type: biochemical
K562 cells = test: K562 cell proliferation assay (CellTiter-Glo); type: cell-based; settings: Homo sapiens, K562 cell viability, 72 hours, read-out: Cell Line (IC50, nM) K562
Description: (§1) K562 and HL60 Cell Proliferation Assay
(§2) K562 and HL60 cells, cultured in Iscove's Modified Dulbecco's Media (IMDM) supplemented with 10% FBS, were harvested at 50-80% confluency and plated at 2,000 cells per well (K562) or 1,500 cells per well (HL60) in 384-well tissue culture plates. A subset of wells contained media only (low control, LC). […] The plates were placed in a 37° C. incubator with 5% CO2 for 72 hours. Cell viability was measured using a CellTiter-Glo luminescent cell viability assay (Promega), which allows for relative quantification of metabolically active cells by luminescence-based measurements of intracellular ATP concentrations. Briefly, plates were removed from the incubator and equilibrated for 15 minutes at room temperature prior to the addition of 40 μL of CellTiter-Glo reagent. Plates were then incubated for 30 minutes at room temperature. Luminescence was measured using an EnSpire plate reader (Perkin Elmer). As noted above, luminescence values from wells with DMSO only or media without cells were used as high and low controls (HC and LC), respectively. Normalized percent viability was calculated as follows: percent viability=100×(Lumsample−LumLC)/(LumHC−LumLC).

ABL1 = target: T1, ABL1 (Homo sapiens, UniProt P00519); test: Luminescence-based ABL kinase assay (300 μM ATP), ADP-Glo; type: biochemical
T1 construct: purchased Carna Biosciences
Description: Compounds were serially diluted in DMSO. […] Luminescence signal positively correlates with kinase activity.

HL60 cells = test: HL60 cell proliferation assay (CellTiter-Glo); type: cell-based; settings: Homo sapiens, HL-60, HL60 cell viability, 72 hours, read-out: Cell Line (IC50, nM) HL60
Description: as §1, §2

Row | SMILES | IC50 (ABL1 (T315I)) [nM] | IC50 (K562 cells) [nM] | IC50 (ABL1) [nM] | IC50 (HL60 cells) [nM]
1 | COc1ccccc1-c1cc2cc(NC(=O)[C@H]3C[C@H]3CO)ncc2n1C (relative stereo) [Compound 23, cis-2-(hydroxymethyl)-N-(2-(2-methoxyphenyl)-1-methyl-1H-pyrrolo[2,3-c]pyridin-5-yl)cyclopropane-1-carboxamide] | 79.5 | 631 | 119 | 1690
2 | COc1ccnc(OC)c1-c1cc2cc(NC(=O)[C@H]3C[C@@H]3CN3C4CCC3CNC4)ncc2n1C (relative stereo) [Compound 147, Trans-2-((3,8-diazabicyclo[3.2.1]octan-8-yl)methyl)-N-(2-(2,4-dimethoxypyridin-3-yl)-1-methyl-1H-pyrrolo[2,3-c]pyridin-5-yl)cyclopropane-1-carboxamide] | 41.8 | 152 | 24.4 | –
3 | COc1ccnc(OC)c1-c1cc2cc(NC(=O)[C@@H]3C[C@H]3CN3CCN(C)CC3)ncc2n1C (single isomer, unassigned) [Compound 121] | 87.9 | 99.1 | 88.8 | > 10000
4 | CCOc1ccccc1-c1cc2cc(NC(=O)C3CC3)ncc2n1C [Compound 3, N-[2-(2-ethoxyphenyl)-1-methylpyrrolo[2,3-c]pyridin-5-yl]cyclopropanecarboxamide] | – | 127 | – | 209
5 | Cc1cc(O)ccc1-c1cc2cc(NC(=O)C3CC3)ncc2n1C [Compound 8, N-[2-(4-hydroxy-2-methylphenyl)-1-methylpyrrolo[2,3-c]pyridin-5-yl]cyclopropanecarboxamide] | – | 95.6 | – | 59.1
6 | Cc1ccc(F)cc1-c1cc2cc(NC(=O)C3CC3)ncc2n1C [Compound 12, N-[2-(5-fluoro-2-methylphenyl)-1-methylpyrrolo[2,3-c]pyridin-5-yl]cyclopropanecarboxamide] | – | 317 | – | 4220
7 | COc1ncccc1-c1cc2cc(NC(=O)C3CC3)ncc2n1C [Compound 22, N-[2-(2-methoxypyridin-3-yl)-1-methylpyrrolo[2,3-c]pyridin-5-yl]cyclopropanecarboxamide] | – | 179 | – | 958
8 | COc1nc(C2CC2)nc(OC)c1-c1cc2cc(NC(=O)[C@@H]3C[C@@H]3F)ncc2n1C [Compound 100, (1S,2S)-N-(2-(2-cyclopropyl-4,6-dimethoxypyrimidin-5-yl)-1-methyl-1H-pyrrolo[2,3-c]pyridin-5-yl)-2-fluorocyclopropane-1-carboxamide] | 233 | 66.2 | 49.2 | –
9 | COc1nc(C)c(F)c(OC)c1-c1cc2cc(NC(=O)[C@@H]3C[C@@H]3F)ncc2n1C [Compound 101, (1S,2S)-2-fluoro-N-[2-(5-fluoro-2,4-dimethoxy-6-methylpyridin-3-yl)-1-methylpyrrolo[2,3-c]pyridin-5-yl]cyclopropane-1-carboxamide] | 2330 | 456 | 153 | –
10 | COc1nc(N(C)C)nc(OC)c1-c1cc2cc(NC(=O)[C@@H]3C[C@@H]3F)ncc2n1C [Compound 104, (1S,2S)-N-(2-(2-(dimethylamino)-4,6-dimethoxypyrimidin-5-yl)-1-methyl-1H-pyrrolo[2,3-c]pyridin-5-yl)-2-fluorocyclopropane-1-carboxamide] | – | – | – | 240
11 | [2H]C([2H])([2H])Oc1ncnc(OC([2H])([2H])[2H])c1-c1cc2cc(NC(=O)[C@@H]3C[C@@H]3F)ncc2n1C([2H])([2H])[2H] [Compound 111, (1S,2S)-N-(2-(4,6-bis(methoxy-d3)pyrimidin-5-yl)-1-(methyl-d3)-1H-pyrrolo[2,3-c]pyridin-5-yl)-2-fluorocyclopropane-1-carboxamide] | – | 23 | – | –

Other lines, results leading:

Row | IC50 (ABL1 (T315I)) [nM] | IC50 (K562 cells) [nM] | IC50 (ABL1) [nM] | IC50 (HL60 cells) [nM] | SMILES
12 | 52.8 | 117 | 53.4 | > 10000 | COc1ccnc(OC)c1-c1cc2cc(NC(=O)[C@@H]3C[C@H]3CN(C)C)ncc2n1C (single isomer, unassigned) [Compound 122]
13 | 80.6 | 106 | 59.4 | 1770 | COc1ccnc(OC)c1-c1cc2cc(NC(=O)[C@H]3C[C@@H]3CN(C)C)ncc2n1C (single isomer, unassigned) [Compound 123]
14 | 56.7 | 41.4 | 14.9 | > 10000 | COc1ncnc(OC)c1-c1cc2cc(NC(=O)[C@H]3C[C@@H]3CN3CCN(C)CC3)ncc2n1C (single isomer, unassigned) [Compound 124]
15 | 107 | 113 | 48.3 | > 10000 | COc1ncnc(OC)c1-c1cc2cc(NC(=O)[C@@H]3C[C@H]3CN3CCN(C)CC3)ncc2n1C (single isomer, unassigned) [Compound 125]
16 | 34.6 | 85.5 | 33.4 | > 10000 | COc1ncc(F)c(OC)c1-c1cc2cc(NC(=O)[C@@H]3C[C@H]3CN3CCN(C)CC3)ncc2n1C (single isomer, unassigned) [Compound 129]
17 | 75.1 | 165 | 59.4 | – | COc1ccccc1-c1cc2cc(NC(=O)[C@@H]3C[C@H]3CN(C)C)ncc2n1C (single isomer, unassigned) [Compound 132]
18 | 85.9 | 181 | 73.5 | – | COc1ccccc1-c1cc2cc(NC(=O)[C@H]3C[C@@H]3CN(C)C)ncc2n1C (single isomer, unassigned) [Compound 133]
19 | – | 53.1 | – | – | COc1cccc(OC)c1-c1cc2cc(NC(=O)[C@@H]3C[C@H]3CN(C)C)ncc2n1C [Compound 134, (1R,2R)-N-(2-(2,6-dimethoxyphenyl)-1-methyl-1H-pyrrolo[2,3-c]pyridin-5-yl)-2-((dimethylamino)methyl)cyclopropane-1-carboxamide]
20 | – | 27.9 | – | – | COc1cccc(OC)c1-c1cc2cc(NC(=O)[C@H]3C[C@@H]3CN(C)C)ncc2n1C [Compound 135, (J S,2S)-N-(2-(2,6-dimethoxyphenyl)-1-methyl-1H-pyrrolo[2,3-c]pyridin-5-yl)-2-((dimethylamino)methyl)cyclopropane-1-carboxamide]
21 | – | 98.8 | – | 1200 | COc1ncnc(OC)c1-c1cc2cc(NC(=O)[C@@H]3CC3(F)F)ncc2n1C [Compound 136, (1S)-N-[2-(4,6-dimethoxypyrimidin-5-yl)-1-methylpyrrolo[2,3-c]pyridin-5-yl]-2,2-difluorocyclopropane-1-carboxamide]
22 | – | 37 | – | 148 | COc1ncnc(OC)c1-c1cc2cc(NC(=O)[C@H]3CC3(F)F)ncc2n1C [Compound 137, (1R)-N-[2-(4,6-dimethoxypyrimidin-5-yl)-1-methylpyrrolo[2,3-c]pyridin-5-yl]-2,2-difluorocyclopropane-1-carboxamide]
23 | – | 291 | 95.8 | > 10000 | Cn1c(-c2cc(F)cnc2OC2CC2)cc2cc(NC(=O)[C@@H]3C[C@@H]3F)ncc21 [Compound 140, (1S,2S)-N-[2-(2-cyclopropoxy-5-fluoropyridin-3-yl)-1-methylpyrrolo[2,3-c]pyridin-5-yl]-2-fluorocyclopropane-1-carboxamide]
24 | – | 1070 | – | > 10000 | [2H]C([2H])([2H])Oc1ncnc(OC([2H])([2H])[2H])c1-c1cc2cc(NC(=O)[C@@H]3C[C@@H]3F)ncc2[nH]1 [Compound 144, (1S,2S)-N-(2-(4,6-bis(methoxy-d3)pyrimidin-5-yl)-1H-pyrrolo[2,3-c]pyridin-5-yl)-2-fluorocyclopropane-1-carboxamide]
